Data taken from the NIST ThermoML archive (doi:10.1021/je3001969).

Assay: xn = mol fraction of the nth substance listed
Details: Liquid, Pycnometric method

[C-]#[O+] [carbon monoxide] + CCC(=O)O
Details | mass density [kg/m3]
293.2 K, x1 = 0.0156 | 988.2
293.2 K, x1 = 0.0211 | 983.1
293.2 K, x1 = 0.0237 | 978.3
293.2 K, x1 = 0.0298 | 970.5
293.2 K, x1 = 0.0353 | 962.3
293.2 K, x1 = 0.0418 | 950.4
293.2 K, x1 = 0.0487 | 937.2
293.2 K, x1 = 0.0596 | 919.7
313.2 K, x1 = 0.0121 | 985.4
313.2 K, x1 = 0.0146 | 978.3
313.2 K, x1 = 0.0202 | 972.6
313.2 K, x1 = 0.0269 | 965.1
313.2 K, x1 = 0.0311 | 957.4
313.2 K, x1 = 0.0387 | 945.2
313.2 K, x1 = 0.0465 | 931.2
313.2 K, x1 = 0.0557 | 913.3
333.2 K, x1 = 0.0105 | 977.4
333.2 K, x1 = 0.0125 | 971.2
333.2 K, x1 = 0.0179 | 964.9
333.2 K, x1 = 0.024 | 958
333.2 K, x1 = 0.028 | 949.8
333.2 K, x1 = 0.0341 | 938.5
333.2 K, x1 = 0.0418 | 925.3
333.2 K, x1 = 0.0508 | 907.7
353.2 K, x1 = 0.0082 | 968.4
353.2 K, x1 = 0.0108 | 963
353.2 K, x1 = 0.0165 | 956.7
353.2 K, x1 = 0.0225 | 952.3
353.2 K, x1 = 0.0267 | 944.7
353.2 K, x1 = 0.0331 | 933.4
353.2 K, x1 = 0.0407 | 919.6
353.2 K, x1 = 0.0478 | 902.3

[C-]#[O+] [carbon monoxide] + COC=O
Details | mass density [kg/m3]
293.2 K, x1 = 0.0184 | 976.3
293.2 K, x1 = 0.0214 | 976.1
293.2 K, x1 = 0.0274 | 974.9
293.2 K, x1 = 0.0342 | 971.3
293.2 K, x1 = 0.0445 | 964.7
293.2 K, x1 = 0.054 | 954.7
293.2 K, x1 = 0.0735 | 932.5
293.2 K, x1 = 0.0914 | 911.2
313.2 K, x1 = 0.012 | 972.1
313.2 K, x1 = 0.0196 | 971.5
313.2 K, x1 = 0.0259 | 969.3
313.2 K, x1 = 0.0358 | 962.4
313.2 K, x1 = 0.0473 | 950.8
313.2 K, x1 = 0.0598 | 937.3
313.2 K, x1 = 0.0691 | 924.7
313.2 K, x1 = 0.0812 | 904.3
333.2 K, x1 = 0.0101 | 969.2
333.2 K, x1 = 0.0136 | 968.7
333.2 K, x1 = 0.0204 | 967.6
333.2 K, x1 = 0.0286 | 960.7
333.2 K, x1 = 0.0412 | 947.8
333.2 K, x1 = 0.0496 | 937.5
333.2 K, x1 = 0.0613 | 923
333.2 K, x1 = 0.0744 | 901.3
353.2 K, x1 = 0.0063 | 964.6
353.2 K, x1 = 0.01 | 964.2
353.2 K, x1 = 0.0159 | 963.2
353.2 K, x1 = 0.0224 | 956.8
353.2 K, x1 = 0.0297 | 948.7
353.2 K, x1 = 0.0401 | 935.3
353.2 K, x1 = 0.0549 | 916.8
353.2 K, x1 = 0.0696 | 895.8
